In patent publication US7575882B2, “Compositions and methods for identifying modulators of TRPV2” (Janssen Pharmaceutica N. V., priority 2005, dated 2009):
pEC50: −log10 of the molar value. Several values for one entry are separate records, joined by “and”; a condition that tells them apart may be missing. Identical values can stand only once.

What was measured:
rat TRPV2 = molecular target: T1, rat TRPV2 (Rattus norvegicus, UniProt Q9WUD2, A713V/L151P/T158I); assay: FLIPR calcium mobilization assay in rat TRPV2-expressing HEK293 cells; format: cell-based
T1 construct: A cDNA fragment encoding the full-length rat TRPV2 was subcloned into pCI-neo; expressed in transfected cells
T1 sequence (Q9WUD2 1-761 L151P/T158I/A713V): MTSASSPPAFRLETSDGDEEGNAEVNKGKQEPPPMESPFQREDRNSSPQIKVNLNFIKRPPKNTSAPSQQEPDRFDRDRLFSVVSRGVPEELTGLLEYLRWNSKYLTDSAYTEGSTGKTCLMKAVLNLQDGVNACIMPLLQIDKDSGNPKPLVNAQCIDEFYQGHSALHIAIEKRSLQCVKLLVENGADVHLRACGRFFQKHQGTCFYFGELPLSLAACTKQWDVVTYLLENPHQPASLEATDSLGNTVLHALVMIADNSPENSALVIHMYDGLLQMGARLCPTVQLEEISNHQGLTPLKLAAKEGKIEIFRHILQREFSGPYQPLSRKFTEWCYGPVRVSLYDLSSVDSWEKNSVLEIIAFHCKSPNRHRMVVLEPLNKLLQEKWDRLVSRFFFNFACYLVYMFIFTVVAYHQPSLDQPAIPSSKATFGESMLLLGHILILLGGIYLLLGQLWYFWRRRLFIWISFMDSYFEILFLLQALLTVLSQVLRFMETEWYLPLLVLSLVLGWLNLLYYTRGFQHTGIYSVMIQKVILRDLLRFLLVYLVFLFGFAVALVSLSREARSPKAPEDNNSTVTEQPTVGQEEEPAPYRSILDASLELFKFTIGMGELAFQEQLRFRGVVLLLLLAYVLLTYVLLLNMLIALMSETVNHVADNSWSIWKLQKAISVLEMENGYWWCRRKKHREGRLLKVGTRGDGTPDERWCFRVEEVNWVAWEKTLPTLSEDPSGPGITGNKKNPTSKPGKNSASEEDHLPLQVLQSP
Description: A cDNA fragment encoding the full-length rat TRPV2 was subcloned into pCI-neo (Promega, Madison, Wis.) mammalian expression vector. The expression construct was then transfected into HEK293 cells with FuGene6 transfection reagent (Roche, Indianapolis, Ind.) according to the vendor's protocol. Stable cell lines were selected by growth in the presence of 400 μg/ml G418. Single G418 resistant clones were isolated and purified.
The rat TRPV2-expressing HEK293 cells were seeded in a 384-well plate at a concentration of 5×10^3 cells/well and incubated overnight at 37° C. The following day, the cells were loaded with buffer and calcium dye 3 (Molecular Devices, Sunnyvale, Calif.) in a final volume of 50 μl and incubated for 30 minutes at 37° C./5% CO2 followed by 30 additional minutes at room temperature. The fluorescence intensity was measured by a fluorescent plate reader (FLIPR) before, during and after the addition of test compounds.
All data was normalized to that observed for 100 μM Δ^9-THC.

[1] = molecular target: T2, rat and human TRPV2 chimera RHR (Rattus norvegicus, UniProt Q9WUD2, A398L/D418K/D570G/D595E/E431N/E493A/E569T/E577V/E585D/F395L/F429V/I422A/INS586GN/K566E/L151P/L436T/L450V/L461V/L478F/L485V/L503S/M468I/M492L/N571P/P420Q/P587G/P589Q/Q419K/R460H/R490C/R560Q/R563W/R617H/S416T/S424H/S425L/S504A/S564R/S573A/S592G/T428E/T494I/T576S/T580M/V402I/V409A/V543I/V575E/V581E/V621M/V635I/Y400N); assay: Calcium mobilization in HEK293 cells expressing TRPV2 chimera RHR; format: cell-based; conditions: transient expression in HEK293
T2 construct: expressed in transfected cells; host or cells: HEK293, transient, pCI-neo
T2 sequence (Q9WUD2 other isoform, or with tags, fused parts or gaps with the stated changes): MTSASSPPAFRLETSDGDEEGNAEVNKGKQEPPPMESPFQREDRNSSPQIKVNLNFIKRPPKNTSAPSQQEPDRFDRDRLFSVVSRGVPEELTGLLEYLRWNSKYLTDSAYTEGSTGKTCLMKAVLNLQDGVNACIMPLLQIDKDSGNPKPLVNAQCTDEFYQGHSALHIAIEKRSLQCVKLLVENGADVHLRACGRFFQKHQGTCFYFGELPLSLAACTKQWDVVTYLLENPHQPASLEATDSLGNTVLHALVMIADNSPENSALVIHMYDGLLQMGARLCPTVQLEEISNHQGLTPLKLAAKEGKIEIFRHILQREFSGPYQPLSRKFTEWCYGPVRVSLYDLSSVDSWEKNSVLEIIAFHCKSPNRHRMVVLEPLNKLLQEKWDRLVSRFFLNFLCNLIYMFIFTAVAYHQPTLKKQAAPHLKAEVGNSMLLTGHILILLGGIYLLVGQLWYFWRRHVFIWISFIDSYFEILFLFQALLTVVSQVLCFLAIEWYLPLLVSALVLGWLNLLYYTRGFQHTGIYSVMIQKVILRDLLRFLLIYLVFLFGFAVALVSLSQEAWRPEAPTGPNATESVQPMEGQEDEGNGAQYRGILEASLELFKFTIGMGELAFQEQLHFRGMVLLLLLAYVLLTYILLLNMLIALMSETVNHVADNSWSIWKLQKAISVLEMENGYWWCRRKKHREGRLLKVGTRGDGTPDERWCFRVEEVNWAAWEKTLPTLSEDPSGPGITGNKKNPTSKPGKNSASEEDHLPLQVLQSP
Description: The deletion mutant constructs were then transfected into HEK293 cells using Fugene 6 reagent (Roche) as per the manufacturer's instructions. At 24 hours post-transfection, the cells were harvested and replated in fresh DMEM medium supplemented with 10% fetal bovine serum, 100 units/ml penicillin, and 100 μg/ml streptomycin. The cells were distributed onto poly-D-Lysine coated 96-or 384-well plates at a density of approximately 40,000 and 10,000 cells per well, respectively. At approximately 48 hours post-transfection, the medium was removed from the assay plate and replaced with Calcium 3 Dye Buffer (Molecular Devices) using the protocol available from the manufacturer. Calcium mobilization was triggered using Δ^9-THC or 2-APB or elevated temperature buffer and measured using either FLIPR or FLEX STATION instruments.
Based on the predicted topology and primary sequence features of TRPV2, TRPV2 are divided into 3 major domains: 1) the amino-terminal intracellular domain; 2) the transmembrane domain; and 3) the carboxyl-terminal intracellular domain. For a chimera, each domain can be of rat (R) or human (H) origin. Three rat and human TRPV2 chimera were constructed and tested herein. RRH (SEQ ID NO:15) was a chimera comprising rat 1-392 aa, rat 393-646 aa, and human 647-764 aa. RHR (SEQ ID NO:16) was a chimera comprising rat 1-392, human 391-646, and rat 647-761. HRR (SEQ ID NO:17) was a chimera comprising human 1-390, rat 393-646, and rat 647-761.
DNA molecules encoding the three rat and human TRPV2 chimeras were obtained by fusion PCR. First, DNA molecules encoding the desired TRPV2 domains were amplified by PCR using the rat or human TRPV2 cDNA as the template with synthetic primer DNA containing in-frame sequence that overlapped with the other species domain to be linked. After PCR amplification and purification, DNA molecules encoding the desired TRPV2 domains from human and rat were combined and used as templates for fusion PCR with primer DNA matching the 5′ and 3′ end sequences of the coding sequence for the full length TRPV2 chimera. […]

Delta-9-tetrahydrocannabinol [Δ^9-THC]
elevation of intracellular Ca2+ in rat TRPV2-expressing HEK293 cells (rat TRPV2; 100 μM): robust elevation of intracellular Ca^2+ | % Response (activation of rat TRPV2) (rat TRPV2; 100 μM compound (anandamide 120 μM), normalized to 100 μM Δ^9-THC): 100% | Hill slope of rat TRPV2 activation (rat TRPV2; FLIPR concentration-response, FIG. 4B): 1.04 | pEC50 (rat TRPV2; FLIPR, rat TRPV2-expressing HEK293 cells, read-out: EC50 (activation of rat TRPV2)): 4.80 and 4.81 | response of chimera RHR to the compound [1]: fully responsive | response of chimera RHR to the compound ([1]; listed as Δ9-THC): active
